Results as given in patent publication US5360909A, “Phenoxyacetic acid compounds and medical preparations containing them” (Terumo Kabushiki Kaisha, priority 1992, dated 1994).

Key:
thromboxane A2 (TXA2) = experiment: Antagonistic effect to TXA2: contraction of isolated guinea pig tracheal strips; format: cell-based, Hartley male guinea pigs; settings: Cavia porcellus, in vitro, TXA2 10^-7 M, Tyrode solution 37° C.
Protocol: (§1) The in vitro IC50 value of the antagonistic effect of the compounds of the present invention to TXA2 and LTD4 was obtained, using the following test system. Tracheal strips isolated from Hartley male guinea pigs (weight: 300 to 500 g) were suspended under a tension of 0.3 g in a Tyrode solution at 37° C. in an organ bath, to which a mixed gas of oxygen (95%)-carbon dioxide (5%) was introduced. After letting the above stabilize for about one hour, TXA2 (produced by Cayman Co.) or LTD4 (produced by Wako Pure Chemicals CO.) was added to the organ bath in a concentration-of 10^-7 M and 10^-8 M respectively, whereupon the contraction of the sections was measured as a standard. The strips were treated with various amounts of the compounds of Examples 1-8, whereupon the contraction of the tracheal preparations upon dosing with TXA2 or LTDS4 was again measured. From the values thus measured, the IC50 (Inhibition concentration) of the compound added was calculated. The results are shown in Table 1 below; the smaller the amount of the compound, the stronger its effectiveness.

leukotriene D4 (LTD4) = experiment: Antagonistic effect to LTD4: contraction of isolated guinea pig tracheal strips; format: cell-based, Hartley male guinea pigs; settings: Cavia porcellus, in vitro, LTD4 10^-8 M, Tyrode solution 37° C.
Protocol: as §1

SMILES	IC50 (thromboxane A2 (TXA2)) [nM]	IC50 (leukotriene D4 (LTD4)) [nM]
CCCc1c(OCCCC(=O)Nc2cc(CCNS(=O)(=O)c3ccc(Cl)cc3)ccc2OCC(=O)O)ccc(C(C)=O)c1O [Example 6, 4-[2-(4-chlorobenzenesulfonamido)ethyl]-2-[(4-acetyl-3-hydroxy-2-propyl)phenoxy-4-butamido]phenoxyacetic acid]	8.2	160
O=C(O)COc1ccc(CCNS(=O)(=O)c2ccccc2)cc1NC(=O)c1cccc(OCc2ccc3ccccc3n2)c1 [Example 2, 4-[2-(benzenesulfonylamino)ethyl]-2-[3-(2-quinolinemethoxy)benzoylamino]phenoxyacetic acid]	3.4	38
O=C(O)COc1ccc(CCNS(=O)(=O)c2ccc(Cl)cc2)c(OCc2cccc(OCc3ccc4ccccc4n3)c2)c1 [Example 4, 4-[2-(4-chlorobenzenesulfonamido)ethyl]-3-(3-(2-quinolinemethoxy)benzyloxy]phenoxyacetic acid]	590	210
O=C(O)COc1ccc(CCNS(=O)(=O)c2ccc(Cl)cc2)c(OCc2ccc3ccccc3n2)c1 [Example 3, 4-[2-(4-chlorobenzenesulfonamido)ethyl]-3-(2-quinolinemethoxy)phenoxyacetic acid]	3.5	8300
O=C(O)COc1ccc(CCNS(=O)(=O)c2ccc(Cl)cc2)cc1NC(=O)c1cccc(OCc2ccc3ccccc3n2)c1 [Example 1, 4-[2-(4-chlorobenzenesulfonamido)ethyl]-2-[3-(2-quinolinemethoxy)benzoylamino]phenoxyacetic acid]	4.2	65
CCCc1c(OCCCCCC(=O)Nc2cc(CCNS(=O)(=O)c3ccc(Cl)cc3)ccc2OCC(=O)O)ccc(C(C)=O)c1O [Example 8, 4-[2-(4-chlorobenzenesulfonamido)ethyl]-2-[(4-acetyl-3-hydroxy-2-propyl)phenoxy-6-hexamido]phenoxyacetic acid]	40	260
CCCc1c(OCCCCC(=O)Nc2cc(CCNS(=O)(=O)c3ccc(Cl)cc3)ccc2OCC(=O)O)ccc(C(C)=O)c1O [Example 7, 4-[2-(4-chlorobenzenesulfonamido)ethyl]-2-[(4-acetyl-3-hydroxy-2-propyl)phenoxy-5-pentamido]phenoxyacetic acid]	19	76
O=C(O)COc1ccc(CCNS(=O)(=O)c2ccc(Cl)cc2)cc1NC(=S)Nc1cccc(OCc2ccc3ccccc3n2)c1 [Example 5, 4-[2-(4-chlorobenzenesulfonamido)ethyl]-2-{3-[3-(2-quinolinemethoxy)phenyl]thioureido}phenoxyacetic acid]	25	72
